Each structure is given as a SMILES string.

For the experiment, the target named is T1, recombinant human glucocorticoid receptor (Homo sapiens, UniProt P04150).
T1 construct: purchased Panvera/Invitrogen P2812 (kit P2893)
T1 sequence (P04150 1-777): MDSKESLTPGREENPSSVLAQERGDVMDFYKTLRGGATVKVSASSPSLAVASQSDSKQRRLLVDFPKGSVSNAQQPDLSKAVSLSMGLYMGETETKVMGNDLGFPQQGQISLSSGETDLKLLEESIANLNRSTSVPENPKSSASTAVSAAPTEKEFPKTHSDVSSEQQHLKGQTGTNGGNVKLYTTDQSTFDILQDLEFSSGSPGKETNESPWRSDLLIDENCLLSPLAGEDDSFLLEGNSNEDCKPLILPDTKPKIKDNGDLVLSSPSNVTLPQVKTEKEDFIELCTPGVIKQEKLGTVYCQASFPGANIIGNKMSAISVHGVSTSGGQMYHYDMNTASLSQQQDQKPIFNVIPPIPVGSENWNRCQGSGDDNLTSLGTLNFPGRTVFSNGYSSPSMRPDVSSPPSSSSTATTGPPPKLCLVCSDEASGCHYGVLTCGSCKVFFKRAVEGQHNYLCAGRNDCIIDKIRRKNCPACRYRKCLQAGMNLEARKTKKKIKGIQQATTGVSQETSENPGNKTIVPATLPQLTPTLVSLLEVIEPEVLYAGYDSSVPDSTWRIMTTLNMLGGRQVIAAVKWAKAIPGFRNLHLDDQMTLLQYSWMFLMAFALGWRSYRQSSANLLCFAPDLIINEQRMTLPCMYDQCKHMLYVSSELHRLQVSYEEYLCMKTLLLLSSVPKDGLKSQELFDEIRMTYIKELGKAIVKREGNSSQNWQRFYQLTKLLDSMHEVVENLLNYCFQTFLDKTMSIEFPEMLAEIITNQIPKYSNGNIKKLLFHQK
The experiment can be described thus: Human glucocorticoid receptor assay (fluorescence polarization, Test Example 1). The format is binding. Here is the method: In this assay, a fluorescence polarization assay kit (Panvera/Invitrogen, product number: P2893) was used. The recombinant human glucocorticoid receptor (product number: P2812), the Fluoromore (trademark)-labeled dexamethasone (GS Green, product number: P2813), the stabilizing peptide solution (product number: P2815), and the basic buffer solution (product number: P2814) which were used in the assay kit had been stored at −80° C. until used. A buffer solution for the assay was prepared by adding the basic buffer solution (10 fold dilution), the stabilizing peptide solution (10 fold dilution), and 1 mol/L DTT (1000 fold dilution to give a final concentration of 1 mmol/L).
The assay was performed as follows. […] The fluorescence polarization value of each well was measured using a plate reader (PerkinElmer, Fusion or Envision). […] To a positive control group, dexamethasone was added so as to give a final concentration of 1 μmol/L. The glucocorticoid receptor binding rate (%) was calculated by the following formula.
Glucocorticoid receptor binding rate (%)=100×[1-(fluorescence polarization value of test compound solution−fluorescence polarization value of positive control solution)/(fluorescence polarization value of negative control solution−fluorescence polarization value of positive control solution)]

For `CC/C(=C1\c2cc3cnn(C)c3cc2COc2ccccc21)c1cccc(NS(C)(=O)=O)c1` [Compound 2, (Z)-5-{1-[3-(methanesulfonamide)phenyl]propylidene}-1-methyl-5,11-dihydrobenzo[6,7]oxepino[4,3-f]indazole], for the setting “at a concentration of 100 nmol/L or higher”, the “inhibitory activity (glucocorticoid receptor binding rate)” value was at least 80%. Further, the “selectivity for human glucocorticoid receptor over progesterone receptor” value (from the results of Test Examples 1 and 2) was “selective inhibitory activity to human glucocorticoid receptors”.

These data come from patent publication US20110112299A1, “TETRACYCLIC COMPOUND” (KYOWA HAKKO KIRIN CO., LTD., priority 2008, published 2011).
